# Assay results taken from paper PMC3189488 (British journal of haematology, 2010).
# How the values were obtained:
# human HDAC6 = biological target: T1, human HDAC6 (Homo sapiens, UniProt Q9UBN7); test: HDAC enzyme assay in vitro, HDAC6; assay type: biochemical; conditions: cell-free, purified enzyme; Fig S1
# T1 sequence (Q9UBN7 1-1215): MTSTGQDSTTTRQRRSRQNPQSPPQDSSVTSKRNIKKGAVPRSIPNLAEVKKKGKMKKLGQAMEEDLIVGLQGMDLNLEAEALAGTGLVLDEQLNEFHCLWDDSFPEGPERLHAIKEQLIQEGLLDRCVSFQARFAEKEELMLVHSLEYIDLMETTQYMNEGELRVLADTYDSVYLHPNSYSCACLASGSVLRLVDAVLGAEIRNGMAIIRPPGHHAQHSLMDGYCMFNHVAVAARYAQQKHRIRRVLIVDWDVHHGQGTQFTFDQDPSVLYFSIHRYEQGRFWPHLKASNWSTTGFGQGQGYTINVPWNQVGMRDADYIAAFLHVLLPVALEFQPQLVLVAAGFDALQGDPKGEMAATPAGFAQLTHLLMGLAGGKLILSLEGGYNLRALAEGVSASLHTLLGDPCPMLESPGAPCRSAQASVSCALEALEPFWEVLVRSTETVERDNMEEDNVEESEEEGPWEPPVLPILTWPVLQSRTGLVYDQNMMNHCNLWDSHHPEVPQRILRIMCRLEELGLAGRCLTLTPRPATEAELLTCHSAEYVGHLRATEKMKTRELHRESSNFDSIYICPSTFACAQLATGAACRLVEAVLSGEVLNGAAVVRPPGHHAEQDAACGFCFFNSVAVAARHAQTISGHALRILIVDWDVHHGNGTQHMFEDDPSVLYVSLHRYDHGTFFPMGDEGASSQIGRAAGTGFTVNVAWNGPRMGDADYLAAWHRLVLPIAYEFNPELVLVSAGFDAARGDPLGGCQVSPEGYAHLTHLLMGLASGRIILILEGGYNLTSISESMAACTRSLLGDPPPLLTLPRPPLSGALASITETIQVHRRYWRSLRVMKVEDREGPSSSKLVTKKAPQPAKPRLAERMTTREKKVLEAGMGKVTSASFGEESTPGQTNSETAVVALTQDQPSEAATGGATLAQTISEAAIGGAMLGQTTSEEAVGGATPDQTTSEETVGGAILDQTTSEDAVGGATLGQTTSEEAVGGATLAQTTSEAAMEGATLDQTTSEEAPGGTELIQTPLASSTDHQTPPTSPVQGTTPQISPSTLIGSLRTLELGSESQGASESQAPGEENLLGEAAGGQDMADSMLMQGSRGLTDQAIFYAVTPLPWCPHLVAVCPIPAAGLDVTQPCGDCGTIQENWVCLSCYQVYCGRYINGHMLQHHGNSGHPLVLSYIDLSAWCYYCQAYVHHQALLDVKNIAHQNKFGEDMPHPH
# HD-LM2 cells = test: Apoptosis by annexin-V/propidium iodide FACS, HD-LM2; assay type: cell-based, human; conditions: 1 μmol/l, 48 h
# KM-H2 cells = test: Apoptosis by annexin-V/propidium iodide FACS, KM-H2; assay type: cell-based, human; conditions: 1 μmol/l, 48 h
# L428 cells = test: Apoptosis by annexin-V/propidium iodide FACS, L428; assay type: cell-based, human; conditions: 1 μmol/l, 48 h
# TNF-α = TNF-α secretion in HL cell supernatants by ELISA; assay type: cell-based, human; conditions: within 24 h of incubation
# HDAC6 = conditions: ref Fournel et al, 2008; Gloghini et al, 2009; cited from earlier work
# human HDAC8 = biological target: T2, human HDAC8 (Homo sapiens, UniProt Q9BY41); test: HDAC enzyme assay in vitro, HDAC8; conditions: cell-free, purified enzyme
# T2 sequence (Q9BY41 1-377): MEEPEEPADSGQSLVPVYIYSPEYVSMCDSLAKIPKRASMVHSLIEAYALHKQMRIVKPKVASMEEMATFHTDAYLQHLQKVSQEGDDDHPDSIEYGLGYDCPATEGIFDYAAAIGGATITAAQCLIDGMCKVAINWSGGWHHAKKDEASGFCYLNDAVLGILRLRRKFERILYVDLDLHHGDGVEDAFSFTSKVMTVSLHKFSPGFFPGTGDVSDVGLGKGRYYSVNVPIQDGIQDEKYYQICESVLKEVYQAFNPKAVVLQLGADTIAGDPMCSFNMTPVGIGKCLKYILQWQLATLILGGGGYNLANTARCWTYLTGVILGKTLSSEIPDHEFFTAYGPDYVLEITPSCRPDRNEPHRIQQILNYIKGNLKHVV
# HL cell lines = test: Combination of MGCD0103 with proteasome inhibitors in HL cell lines; assay type: cell-based, human; conditions: 48 h, combination index <1 indicates synergy
# NF-kB = test: p65 NF-kB nuclear translocation by Western blot; assay type: cell-based, human; conditions: bortezomib 20 nmol/l with MGCD0103 1 μmol/l, 24 h
# [1] = biological target: human HDAC3 with human NcoR2 (Homo sapiens, UniProt O15379); test: HDAC enzyme assay in vitro, HDAC3; conditions: cell-free, purified enzyme
# Sequence of human HDAC3 with human NcoR2 (O15379 whole entry, canonical isoform): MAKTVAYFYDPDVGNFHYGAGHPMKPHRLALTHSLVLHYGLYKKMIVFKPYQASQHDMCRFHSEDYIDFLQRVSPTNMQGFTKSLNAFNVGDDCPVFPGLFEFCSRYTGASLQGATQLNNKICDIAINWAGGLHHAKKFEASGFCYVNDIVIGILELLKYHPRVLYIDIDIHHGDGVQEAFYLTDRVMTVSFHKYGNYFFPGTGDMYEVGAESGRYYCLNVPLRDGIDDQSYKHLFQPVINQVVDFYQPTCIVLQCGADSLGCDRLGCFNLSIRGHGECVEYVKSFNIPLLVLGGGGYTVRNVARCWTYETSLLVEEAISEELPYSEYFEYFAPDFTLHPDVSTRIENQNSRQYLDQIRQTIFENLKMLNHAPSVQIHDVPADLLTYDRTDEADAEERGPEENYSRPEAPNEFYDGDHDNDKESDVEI
# Sequence of human HDAC3 with human NcoR2 (Q9Y618 395-489 partner limits assumed): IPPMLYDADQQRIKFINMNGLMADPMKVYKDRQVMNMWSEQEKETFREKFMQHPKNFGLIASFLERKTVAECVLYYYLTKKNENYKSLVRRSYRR
# HDACs 1-10 = test: HDAC enzyme assay in vitro, purified HDAC 1-10 isoforms; conditions: positive control
Molecule,percentage of apoptotic cells (HD-LM2 cells),percentage of apoptotic cells (KM-H2 cells),percentage of apoptotic cells (L428 cells),inhibition of HDAC8 activity (human HDAC8),combination effect with MGCD0103 (HL cell lines),other results
Nc1ccccc1NC(=O)c1ccc(CNc2nccc(-c3cccnc3)n2)cc1 [MGCD0103],59%,69%,72%,also inhibited the activity,–,effect on HDAC6 activity (human HDAC6): no effect; TNF-α levels in supernatants (TNF-α): profoundly increased; effect on HDAC6 (HDAC6): no effect
C[C@@]12OC(=O)[C@]1([C@@H](O)[C@@H]1C=CCCC1)NC(=O)[C@@H]2CCCl [NPI0052],–,–,–,–,synergistic activity,–
CC(C)C[C@H](NC(=O)[C@H](Cc1ccccc1)NC(=O)c1cnccn1)B(O)O [bortezomib],–,–,–,–,synergistic antiproliferative effect,effect on MGCD0103-induced NF-kB activation (NF-kB): inhibited MGCD0103-induced NF-kB activation
"O=C(CCCCCCC(=O)Nc1ccccc1)NO [vorinostat, suberoylanilide hydroxamic]",21%,13.8%,15%,had activity,–,inhibition of HDAC3 activity [1]: had activity
Trichostatin A [Trichostatin-A],–,–,–,–,–,potency against HDACs 1-10 compared with MGCD0103 and vorinostat (HDACs 1-10): higher potency
